Experiment [1] deals with T1, P-glycoprotein (P-gp) (Homo sapiens, UniProt P08183).
T1 construct: gene ABCB1
The experiment can be described thus: Pgp-Glo P-gp ATPase assay: stimulation of basal activity; also inhibition of verapamil-stimulated activity. The experiment is classed as biochemical.

For experiment [2], the target named is T2, NFAT2 (Homo sapiens, UniProt O95644).
T2 construct: gene NFATC1
T2 sequence (O95644 1-943): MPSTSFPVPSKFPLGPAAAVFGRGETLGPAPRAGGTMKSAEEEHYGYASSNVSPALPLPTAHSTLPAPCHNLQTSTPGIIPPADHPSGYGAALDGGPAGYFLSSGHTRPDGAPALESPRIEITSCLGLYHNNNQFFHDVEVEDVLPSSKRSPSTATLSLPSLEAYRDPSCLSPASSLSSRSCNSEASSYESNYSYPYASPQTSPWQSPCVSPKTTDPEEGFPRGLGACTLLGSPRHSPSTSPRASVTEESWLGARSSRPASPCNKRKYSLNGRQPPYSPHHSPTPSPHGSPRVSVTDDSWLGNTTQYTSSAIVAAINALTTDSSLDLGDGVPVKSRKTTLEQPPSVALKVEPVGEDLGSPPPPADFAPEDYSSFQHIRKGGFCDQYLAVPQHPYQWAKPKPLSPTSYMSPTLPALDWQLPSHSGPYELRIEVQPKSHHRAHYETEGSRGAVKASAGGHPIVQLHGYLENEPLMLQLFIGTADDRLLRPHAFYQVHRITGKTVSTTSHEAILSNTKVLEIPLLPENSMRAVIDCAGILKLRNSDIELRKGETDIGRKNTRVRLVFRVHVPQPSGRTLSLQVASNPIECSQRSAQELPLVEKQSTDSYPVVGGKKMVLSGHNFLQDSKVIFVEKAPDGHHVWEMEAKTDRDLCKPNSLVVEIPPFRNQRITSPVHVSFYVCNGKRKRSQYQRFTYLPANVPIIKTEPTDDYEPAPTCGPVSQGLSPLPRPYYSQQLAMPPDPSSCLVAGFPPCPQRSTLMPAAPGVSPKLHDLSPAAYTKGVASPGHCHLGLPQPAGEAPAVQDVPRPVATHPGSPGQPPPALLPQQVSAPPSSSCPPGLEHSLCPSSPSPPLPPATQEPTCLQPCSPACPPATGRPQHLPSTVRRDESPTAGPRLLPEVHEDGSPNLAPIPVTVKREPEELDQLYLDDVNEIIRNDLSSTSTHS
The experiment can be described thus: DARTS in A549/T cell lysate with NFAT2 immunoblot. The format is cell-based. On the technique in general: Immunoblotting shows a protein as a band on a membrane.

T1 sequence (P08183 whole entry): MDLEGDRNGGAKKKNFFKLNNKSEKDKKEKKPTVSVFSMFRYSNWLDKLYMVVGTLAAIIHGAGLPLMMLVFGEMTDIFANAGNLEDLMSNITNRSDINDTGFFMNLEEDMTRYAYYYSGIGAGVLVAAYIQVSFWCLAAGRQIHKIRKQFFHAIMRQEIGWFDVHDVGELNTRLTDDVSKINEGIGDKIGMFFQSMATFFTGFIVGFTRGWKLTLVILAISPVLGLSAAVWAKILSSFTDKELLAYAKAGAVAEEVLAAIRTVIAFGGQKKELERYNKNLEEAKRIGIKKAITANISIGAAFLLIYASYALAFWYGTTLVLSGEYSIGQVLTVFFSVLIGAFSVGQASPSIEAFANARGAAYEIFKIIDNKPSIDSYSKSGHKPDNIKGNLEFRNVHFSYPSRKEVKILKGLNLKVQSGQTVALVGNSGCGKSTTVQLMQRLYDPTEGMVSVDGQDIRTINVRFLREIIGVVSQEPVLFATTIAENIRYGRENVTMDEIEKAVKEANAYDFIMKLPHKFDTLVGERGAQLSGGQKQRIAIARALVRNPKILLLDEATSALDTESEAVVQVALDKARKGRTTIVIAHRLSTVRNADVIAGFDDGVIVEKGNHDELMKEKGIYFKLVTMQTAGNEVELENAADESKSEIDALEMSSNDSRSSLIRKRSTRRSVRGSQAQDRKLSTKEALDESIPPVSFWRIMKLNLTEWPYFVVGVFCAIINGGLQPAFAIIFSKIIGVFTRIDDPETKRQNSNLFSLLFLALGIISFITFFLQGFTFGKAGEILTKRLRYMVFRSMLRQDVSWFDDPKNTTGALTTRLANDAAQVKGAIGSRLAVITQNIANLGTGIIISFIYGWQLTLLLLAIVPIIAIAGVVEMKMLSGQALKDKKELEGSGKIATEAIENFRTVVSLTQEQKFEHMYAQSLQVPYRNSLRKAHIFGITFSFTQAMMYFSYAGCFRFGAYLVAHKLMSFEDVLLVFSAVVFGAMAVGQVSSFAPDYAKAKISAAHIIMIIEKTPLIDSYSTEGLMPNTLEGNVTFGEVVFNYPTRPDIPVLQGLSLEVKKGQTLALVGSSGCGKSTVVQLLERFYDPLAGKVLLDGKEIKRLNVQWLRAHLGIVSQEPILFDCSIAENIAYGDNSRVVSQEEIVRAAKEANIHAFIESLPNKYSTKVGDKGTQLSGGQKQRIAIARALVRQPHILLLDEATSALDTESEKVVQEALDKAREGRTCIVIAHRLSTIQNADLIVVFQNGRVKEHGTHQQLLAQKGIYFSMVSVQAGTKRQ

The term EC50 denotes the concentration needed to bring the measured effect to its halfway point. High values mean a less potent agent, low ones a more potent agent. In the case of `COC(=O)C1=C(C)NC(C)=C(C(=O)OCCN2CCN(C(c3ccccc3)c3ccccc3)CC2)C1c1cccc([N+](=O)[O-])c1` (centres unmarked) [MA, manidipine], the EC50 in experiment [1] was 4.16 µM. Moreover, the “DARTS in A549/T cell lysate with NFAT2 immunoblot” value in experiment [2] is given as “MA effectively protected the NFAT2 protein from proteolysis (Figure 7F,G), thereby indicating that MA is a ligand of NFAT2”.

(Values after paper PMC12562668, “Targeting NFAT2 for Reversing the P-gp-Mediated Multidrug Resistance to Paclitaxel by Manidipine” (Cancers, 2025).)
